Experimental findings from patent publication US9085575B2, “Tri- and tetracyclic pyrazolo[3,4-B]pyridine compounds as antineoplastic agent” (PIERRE FABRE MEDICAMENT, priority 2011, dated 2015) are described below.

pIC50: −log10 of the molar value.

Chain of ALK (Q9UM73 19-1620): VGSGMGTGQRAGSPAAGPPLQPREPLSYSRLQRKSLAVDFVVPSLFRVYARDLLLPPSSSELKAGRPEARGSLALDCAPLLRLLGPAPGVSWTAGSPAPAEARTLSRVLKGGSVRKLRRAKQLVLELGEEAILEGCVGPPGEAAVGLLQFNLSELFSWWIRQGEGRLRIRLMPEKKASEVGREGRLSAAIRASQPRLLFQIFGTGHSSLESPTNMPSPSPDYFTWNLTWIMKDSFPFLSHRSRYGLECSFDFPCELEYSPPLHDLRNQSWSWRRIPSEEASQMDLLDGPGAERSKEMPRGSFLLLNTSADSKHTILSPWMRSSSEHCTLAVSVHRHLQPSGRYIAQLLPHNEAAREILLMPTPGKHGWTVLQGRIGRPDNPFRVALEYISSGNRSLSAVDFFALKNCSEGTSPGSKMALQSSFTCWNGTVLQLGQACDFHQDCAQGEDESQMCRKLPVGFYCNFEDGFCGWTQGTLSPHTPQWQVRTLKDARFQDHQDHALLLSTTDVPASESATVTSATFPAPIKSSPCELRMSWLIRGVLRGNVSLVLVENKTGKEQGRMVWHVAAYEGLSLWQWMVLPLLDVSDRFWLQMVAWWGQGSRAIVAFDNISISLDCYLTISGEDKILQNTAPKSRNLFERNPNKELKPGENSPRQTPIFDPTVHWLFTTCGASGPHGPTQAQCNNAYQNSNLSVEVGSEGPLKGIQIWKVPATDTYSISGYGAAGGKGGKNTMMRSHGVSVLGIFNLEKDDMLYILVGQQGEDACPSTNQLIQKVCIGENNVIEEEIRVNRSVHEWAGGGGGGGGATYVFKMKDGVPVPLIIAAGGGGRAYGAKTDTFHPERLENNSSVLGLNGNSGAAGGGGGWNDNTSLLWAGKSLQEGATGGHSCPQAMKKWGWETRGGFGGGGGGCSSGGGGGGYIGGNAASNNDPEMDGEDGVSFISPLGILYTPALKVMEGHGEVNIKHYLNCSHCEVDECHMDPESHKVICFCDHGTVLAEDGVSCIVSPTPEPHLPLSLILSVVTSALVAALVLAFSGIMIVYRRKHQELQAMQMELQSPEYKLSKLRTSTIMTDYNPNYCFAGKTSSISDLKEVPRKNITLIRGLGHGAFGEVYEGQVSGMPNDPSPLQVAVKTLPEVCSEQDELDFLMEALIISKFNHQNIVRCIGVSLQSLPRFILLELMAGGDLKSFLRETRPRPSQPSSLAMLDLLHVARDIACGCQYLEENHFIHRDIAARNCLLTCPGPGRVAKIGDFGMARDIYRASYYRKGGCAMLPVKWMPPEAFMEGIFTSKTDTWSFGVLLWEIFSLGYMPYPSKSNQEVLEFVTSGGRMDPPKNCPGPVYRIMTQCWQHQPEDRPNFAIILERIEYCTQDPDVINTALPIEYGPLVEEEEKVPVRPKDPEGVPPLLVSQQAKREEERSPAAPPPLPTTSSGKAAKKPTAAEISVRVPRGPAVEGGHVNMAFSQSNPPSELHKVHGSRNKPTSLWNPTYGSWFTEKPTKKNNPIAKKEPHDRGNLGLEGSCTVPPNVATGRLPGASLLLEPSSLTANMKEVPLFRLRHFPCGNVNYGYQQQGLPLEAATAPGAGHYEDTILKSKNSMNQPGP

For one assay, the target named is ALK (Homo sapiens, UniProt Q9UM73). Description: Test for measurement of ALK inhibition (ELISA, GST-PLCγ1 substrate, luminescence). It counts as biochemical. The following applies: comparative tests; read-out: Alk enzymatic inhibition (IC50). The protocol:
Test for Measurement of ALK Inhibition
A ViewPlate microplate (Packard) is incubated with 0.1 mg/ml GST-PLCγ1 substrate (purified recombinant form) in phosphate buffer (PBS, pH 7.4) (100 μl/well) for one hour under stirring. The plate is then saturated with blocking solution comprising 5% bovine serum albumin (BSA) (Sigma) in PBS buffer, pH 7.4.
After having added the inhibitor at the desired final concentration (typical range between 30 μM and 10 nM), the reaction is carried out by adding 180 ng/ml ALK to a reaction buffer comprised of 13 mM Tris, pH 7.5 (Sigma); 6.5 mM MgCl2 (Merck); 0.65 mM dithiothreitol (DTT) (Acros); 39 mM sodium β-glycerophosphate (TCI); 0.65 mM sodium orthovanadate (Sigma); and 250 μM ATP (Sigma). Incubation is carried out for 30 minutes at 30° C. under stirring.
After three washings under stirring in 0.1% PBS/Tween-20 buffer (Sigma), an anti-phosphotyrosine antibody, coupled with HRP (UBI) diluted to 1/1000 in 5 mg/ml PBS/BSA buffer, is incubated for one hour with stirring. After three new washings in 0.1% PBS/Tween-20, the wells are incubated for two minutes with 100 μl of SuperSignal ELISA mixture (Pierce).
The signal is read in luminescence mode using a luminometer (SpectraMax M5e, Molecular Devices).
As a reminder, the pIC50 is the negative decadic logarithm of the IC50, by convention in mol/L. Take `Cc1n[nH]c2nc(-c3ccc(O)cc3)c3cnc4ccccc4c3c12` [Compound 06]: the pIC50 was 7.46.

Regarding `Cc1n[nH]c2nc(-c3ccc(O)cc3)c3ccccc3c12` [Comparative compound 98, reference compound], the pIC50 was 7.15.

Consider `Cc1n[nH]c2nc(-c3ccc(O)cc3)c3c(=O)[nH]c4ccccc4c3c12` [Compound 02], for which the pIC50 is 8.60.

Still in this assay, the particulars now being: enzymatic IC50 on ALK, 250 μM ATP, class symbols; read-out: IC50 (ALK).
With `Cc1n[nH]c2nc(-c3ccc(O)c(C(F)(F)F)c3)c3c(=O)[nH]c4cc(N5CCNCC5)ccc4c3c12` [Compound 41], the pIC50 is 6.00 to 7.00. In the case of `Cc1n[nH]c2nc(-c3ccc(O)cc3)c3c(=O)n(CCCN(C)C)c4cc(N5CCNCC5)ccc4c3c12` [Compound 12], the pIC50 was more than 7.00.

In the case of `Cc1n[nH]c2nc(-c3ccc(O)cc3)c3c(=O)n(CCCN(C)C)c4ccccc4c3c12` [Compound 07], the pIC50 was more than 7.00. For the compound `O=c1[nH]c2ccccc2c2c1c(-c1ccc(O)cc1)nc1[nH]nc(-c3ccc(N4CCNCC4)cc3)c12` [Compound 05], the pIC50 was more than 7.00. Consider `CCn1c(=O)c2c(-c3ccc(O)cc3)nc3[nH]nc(C)c3c2c2ccc(N3CCNCC3)cc21` [Compound 20], for which the negative-log IC50 (pIC50) was more than 7.00. Turning to `CCOc1cc(F)cc(-c2nc3[nH]nc(C)c3c3c2c(=O)n(CC)c2cc(N4CCNCC4)ccc32)c1` [Compound 33], the pIC50 was more than 7.00.

As for `Cc1n[nH]c2nc(-c3ccc(O)cc3)c3c(c12)CCNC3=O` [Compound 53], the pIC50 was more than 7.00. Consider `CC(=O)Oc1ccc(-c2nc3[nH]nc(C)c3c3c2c(=O)[nH]c2cc(N4CCNCC4)ccc23)cc1` [Compound 17], for which the pIC50 was more than 7.00.

Consider `Nc1n[nH]c2nc(-c3cc(F)cc(F)c3)c3c(=O)[nH]c4cc(N5CCNCC5)ccc4c3c12` [Compound 36], for which the pIC50 is 5.00 to 6.00. As for `Nc1n[nH]c2nc(-c3ccc(O)cc3F)c3c(=O)[nH]c4ccccc4c3c12` [Compound 38], the pIC50 is more than 7.00. In the case of `O=c1[nH]c2cc(N3CCNCC3)ccc2c2c1c(-c1ccc(O)cc1)nc1[nH]nc(-c3ccco3)c12` [Compound 16], the negative logarithm of the IC50 (pIC50) was more than 7.00.

In the case of `Cc1n[nH]c2nc(-c3ccc(O)cc3)c3c(=O)[nH]c4cc(N5CCN(C6CCN(C)CC6)CC5)ccc4c3c12` [Compound 21], the pIC50 is more than 7.00. Turning to `Nc1n[nH]c2nc(-c3ccc(O)cc3)c3c(=O)n(O)c4ccccc4c3c12` [Compound 42], the pIC50 was more than 7.00. On to `Nc1n[nH]c2nc(-c3ccc(O)cc3)c3c(=O)[nH]ccc3c12` [Compound 39], for which the pIC50 is 5.00 to 6.00. With `CCn1cc(-c2ccc(N3CCNCC3)cc2)c2c(c(-c3ccc(O)cc3)nc3[nH]nc(N)c32)c1=O` [Compound 54], the pIC50 is 5.00 to 6.00. `CCn1c(=O)c2c(-c3ccc(O)c(C(F)(F)F)c3)nc3[nH]nc(C)c3c2c2ccc(N3CCNCC3)cc21` [Compound 46]: the pIC50 was more than 7.00. As for `COc1ccc(-c2nc3[nH]nc(C)c3c3c2c(=O)oc2ccccc23)cc1` [Compound 08], the pIC50 is 5.00 to 6.00. On to `Nc1n[nH]c2nc(-c3ccc(O)cc3)c3c(=O)[nH]c4ccccc4c3c12` [Compound 24], for which the pIC50 was more than 7.00. As to `Cc1n[nH]c2nc(-c3ccc(O)cc3)c3c(=O)oc(-c4ccccc4)cc3c12` [Compound 28], the pIC50 is 6.00 to 7.00.

`Cn1ccc2c(c(-c3cc(F)cc(F)c3)nc3[nH]nc(N)c32)c1=O` [Compound 45]: the pIC50 is 5.00 to 6.00.

Turning to `Cc1n[nH]c2nc(-c3ccc(O)cc3)c3c(=O)[nH]ccc3c12` [Compound 35], the pIC50 is 5.00 to 6.00.

`Cc1n[nH]c2nc(-c3cc(F)cc(F)c3)c3c(=O)[nH]c4cc(N5CCNCC5)ccc4c3c12` [Compound 31]: the pIC50 is 5.00 to 6.00. Take `CCn1ccc2c(c(-c3ccc(O)cc3)nc3[nH]nc(C)c32)c1=O` [Compound 44]: the negative-log IC50 (pIC50) was 5.00 to 6.00. The same measure, in the same setting: the result for `Cc1n[nH]c2nc(-c3ccc(O)cc3)c3c(=O)[nH]c4cc(N5CCC(N)CC5)ccc4c3c12` [Compound 18] reads more than 7.00. `Cc1n[nH]c2nc(-c3ccc(O)c(C(=O)O)c3)c3c(=O)[nH]c4cc(N5CCNCC5)ccc4c3c12` [Compound 27]: the pIC50 is 5.00 to 6.00.

For `CCOc1nc2cc(N3CCNCC3)ccc2c2c1c(-c1ccc(O)c(C(F)(F)F)c1)nc1[nH]nc(C)c12` [Compound 47], the pIC50 is 6.00 to 7.00.

Consider `Cc1n[nH]c2nc(-c3ccc(O)cc3)c3c(=O)n(CCCN4CCN(C)CC4)c4ccccc4c3c12` [Compound 10], for which the pIC50 was more than 7.00. The same measure, in the same setting: the result for `Cc1n[nH]c2nc(-c3ccc(O)cc3)c3c(=O)[nH]c4cc(OCCCN5CCNCC5)ccc4c3c12` [Compound 13] reads more than 7.00; that for `CC(=O)Oc1ccc(-c2nc3c(c(C)nn3C(C)=O)c3c2c(=O)[nH]c2cc(N4CCNCC4)ccc23)cc1` [Compound 49], more than 7.00; that for `Cc1nn(C(=O)OC(C)(C)C)c2nc(-c3ccc(OC(=O)C(C)(C)C)cc3)c3c(=O)[nH]c4cc(N5CCN(C(=O)OC(C)(C)C)CC5)ccc4c3c12` [Compound 50], 6.00 to 7.00. As to `CCOC(=O)Oc1ccc(-c2nc3c(c(C)nn3C(=O)OCC)c3c2c(=O)[nH]c2cc(N4CCN(C(=O)OCC)CC4)ccc23)cc1` [Compound 48], the pIC50 is 5.00 to 6.00. For `COc1ccc(-c2nc3[nH]nc(N)c3c3c2c(=O)[nH]c2ccc(N4CCNCC4)cc23)cc1` [Compound 22], the pIC50 was 5.00 to 6.00. As for `COc1ccc(-c2nc3[nH]nc(N)c3c3c2c(=O)[nH]c2cc(N4CCNCC4)ccc23)cc1` [Compound 51], the pIC50 is more than 7.00. On to `CCn1c(=O)c2c(-c3cc(F)cc(F)c3)nc3[nH]nc(N)c3c2c2ccc(N3CCNCC3)cc21` [Compound 55], for which the pIC50 was 6.00 to 7.00. Regarding `Cc1n[nH]c2nc(-c3ccc(O)cc3)c3c(=O)[nH]c4cc(N5CC[C@@H](N)C5)ccc4c3c12` [Compound 11], the pIC50 was more than 7.00.

For the compound `Cc1n[nH]c2nc(-c3ccc(O)cc3)c3c(=O)[nH]c4ccccc4c3c12` [Compound 02], the pIC50 is more than 7.00. `Nc1n[nH]c2nc(-c3ccc(O)cc3)c3c(=O)[nH]c4ccc(N5CCNCC5)cc4c3c12` [Compound 25]: the pIC50 is more than 7.00. `Cc1n[nH]c2nc(-c3cc(O)cc(F)c3)c3c(=O)[nH]c4cc(N5CCNCC5)ccc4c3c12` [Compound 30]: the pIC50 was more than 7.00.

As for `Cc1cc2c(o1)-c1c(c(-c3ccc(O)cc3)nc3[nH]nc(C)c13)C2=O` [Compound 01], the pIC50 is more than 7.00. As to `Cc1n[nH]c2nc(-c3ccc(O)cc3)c3c(=O)oc4ccccc4c3c12` [Compound 09], the pIC50 was 6.00 to 7.00.

In the case of `Cc1n[nH]c2nc(-c3ccc(O)cc3)c3c(=O)n(CCN4CCNCC4)c4ccccc4c3c12` [Compound 15], the pIC50 was 6.00 to 7.00. With `CC(=O)Nc1n[nH]c2nc(-c3ccc(O)cc3)c3c(=O)[nH]c4ccccc4c3c12` [Compound 23], the pIC50 is more than 7.00. Consider `CCOc1ccc(-c2nc3[nH]nc(C)c3c3c2c(=O)[nH]c2cc(N4CCNCC4)ccc23)cc1` [Compound 19], for which the negative-log IC50 (pIC50) is more than 7.00. Same read-out and setting: the result for `Nc1n[nH]c2nc(-c3ccc(O)cc3)c3c(=O)[nH]c4cc(N5CCNCC5)ccc4c3c12` [Compound 32] reads more than 7.00. On the same count and under the same terms, the result for `CN1CCN(c2ccc(C(=O)Nc3n[nH]c4nc(-c5ccc(O)cc5)c5c(=O)[nH]c6ccccc6c5c34)cc2)CC1` [Compound 52] reads more than 7.00; that for `Cc1n[nH]c2nc(-c3ccc(O)cc3)c3c(=O)n(CCCN4CC[C@@H](N)C4)c4ccccc4c3c12` [Compound 14], more than 7.00.

In the case of `O=C1c2cc(N3CCNCC3)ccc2-c2c1c(-c1c(F)ccc(F)c1F)nc1[nH]nc(-c3cccs3)c21` [Compound 03], the pIC50 is 5.00 to 6.00. On the same count and under the same terms, the result for `Cc1n[nH]c2nc(-c3ccc(O)cc3)c3c(=O)[nH]c4cc(N5CCNCC5)ccc4c3c12` [Compound 04] reads more than 7.00; that for `CCn1c(=O)c2c(-c3ccc(O)cc3)nc3[nH]nc(N)c3c2c2ccc(N3CCNCC3)cc21` [Compound 37], more than 7.00.

Another assay relates to Karpas 299 cells. Description: Test for measurement of cell proliferation inhibition (Karpas 299), ATPlite. It counts as cell-based. The following applies: Homo sapiens, Karpas 299 cell line, 72 hours. The protocol: Test for Measurement of Cell Prolifearation Inhibition (Karpas 299)
The antiproliferative activity of the compounds according to the invention has been measured by the ATPlite technique (Perkin Ekmer).
Human cells of non-adherent anaplasic large cell lymphoma (Karpas 299) are seeded in 96-well plates (300,000 cells/ml) on day 1, at a concentration compatible with a logarithmic growth for 72 hours necessary for the evaluation of the compounds according to the invention. All the cells are treated on day 1 and then placed in an incubator at 37° C., under a 5% CO2 atmosphere. Cell viability is evaluated on day 4 by dosing the emitted ATP, which is a characteristic of viable cells. IC50s are determined by a non linear regression based on a sigmoidal model of dose/response relationship, the Hill coefficient being let variable, performed with the GraphPad software according to the algorithm provided.
In general terms: In ATP-based viability assays light output follows the ATP content of the culture.
In turn, `Cc1n[nH]c2nc(-c3ccc(O)cc3)c3cnc4ccccc4c3c12` [Compound 06] gave a pIC50 of 6.00.

In turn, `Cc1n[nH]c2nc(-c3ccc(O)cc3)c3ccccc3c12` [Comparative compound 98, reference compound] showed a pIC50 of 5.39. `Cc1n[nH]c2nc(-c3ccc(O)cc3)c3c(=O)[nH]c4ccccc4c3c12` [Compound 02] showed a pIC50 of 6.77.
